Results on 19 compounds are retold here after US20250353855A1, “HETEROCYCLIC AND HETEROARYL COMPOUNDS FOR TREATING HUNTINGTON'S DISEASE” (PTC THERAPEUTICS, INC., priority 2022, published 2025).

Where only a bound is given, the exact number is not on record here.

The subject of the assay is Endogenous Huntingtin Protein. Nature of the assay: Endogenous Huntingtin Protein Assay (ELISA-based MSD electrochemiluminescence). The format is cell-based. As to conditions: MSD plates coated with MW1 (expanded polyglutamine) or MAB2166 capture antibody; lysates; read-out: IC50. As to the method: Compounds of Formula (T) were tested using the Meso Scale Discovery (MSD) Assay provided in International Application No. PCT/US2016/066042, filed on Dec. 11, 2016 and claiming priority to U.S. Provisional Application 62/265,652 filed on Dec. 10, 2015, the entire contents of which are incorporated herein by reference.
The Endogenous Huntingtin Protein assay used in Example 1 was developed using the ELISA-based MSD electrochemiluminescence assay platform.
Meso Scale Discovery (MSD) 96-well or 384-well plates were coated overnight at 4° C. with MW1 (expanded polyglutamine) or MAB2166 monoclonal antibody (for capture) at a concentration of 1 μg/mL in PBS (30 μL per well). Plates were then washed three times with 300 μL wash buffer (0.05% Tween-20 in PBS) and blocked (100 μL blocking buffer; 5% BSA in PBS) for 4-5 hours at room temperature with rotational shaking and then washed three times with wash buffer.
Samples (25 μL) were transferred to the antibody-coated MSD plate and incubated overnight at 4° C. After removal of the lysates, the plate was washed three times with wash buffer, and 25 μL of #5656S (Cell signaling; rabbit monoclonal) secondary antibody (diluted to 0.25 μg/mL in 0.05% Tween-20 in blocking buffer) was added to each well and incubated with shaking for 1 Hour at room temperature. Following incubation with the secondary antibody, the wells were rinsed with wash buffer after which 25 μL of goat anti-rabbit SULFO TAG secondary detection antibody (required aspect of the MSD system) (diluted to 0.25 μg/mL in 0.05% Tween-20 in blocking buffer) was added to each well and incubated with shaking for 1 hour at room temperature. After rinsing three times with wash buffer, 150 μL of read buffer T with surfactant (MSD) were added to each empty well, and the plate was imaged on a SI 6000 imager (MSD) according to manufacturers' instructions provided for 96- or 384-well plates.
On the technique in general: An ELISA detects its analyte on a solid surface through an enzyme-linked reagent.
Regarding `Cn1nnc2cc(-c3cc4nnn(C5CC(C)(C)NC6(CC6)C5)c4nn3)c(O)cc21` (racemic) [Cpd 7, 5-[rac-3-(5,5-dimethyl-4-azaspiro[2.5]octan-7-yl)-3H-[1,2,3]triazolo[4,5-c]pyridazin-6-yl]-1-methyl-1H-benzotriazol-6-ol], the IC50 (usually the point on the concentration scale where inhibition reaches its midpoint) fell in the range of 0.5 to 1 µM.

For the compound `Cc1nc2cc(O)c(-c3cc4ncn([C@H]5C[C@@H]6CC[C@@H](N6)[C@H]5F)c4nn3)cc2s1` (single isomer, unassigned) [Cpd 9, 6-{7-[(1R,2R,3S,5S)-2-fluoro-8-azabicyclo[3.2.1]octan-3-yl]-7H-imidazo[4,5-c]pyridazin-3-yl}-2-methyl-1,3-benzothiazol-5-ol or 6-{7-[(1S,2S,3R,5R)-2-fluoro-8-azabicyclo[3.2.1]octan-3-yl]-7H-imidazo[4,5-c]pyridazin-3-yl}-2-methyl-1,3-benzothiazol-5-ol], the IC50 was under 0.1 µM.

For `Cc1nc2cc(O)c(-c3cc4ccn([C@H]5C[C@@H]6CC[C@@H](N6)[C@H]5F)c4nn3)cc2s1` (single isomer, unassigned) [Cpd 10, 6-{7-[(1R,2R,3S,5S)-2-fluoro-8-azabicyclo[3.2.1]octan-3-yl]-7H-pyrrolo[2,3-c]pyridazin-3-yl}-2-methyl-1,3-benzothiazol-5-ol or 6-{7-[(1S,2S,3R,5R)-2-fluoro-8-azabicyclo[3.2.1]octan-3-yl]-7H-pyrrolo[2,3-c]pyridazin-3-yl}-2-methyl-1,3-benzothiazol-5-ol], the IC50 is under 0.1 µM.

With `Cc1nc2cc(O)c(-c3cc4ccn([C@@H]5C[C@H]6CC[C@H](N6)[C@@H]5F)c4nn3)cc2s1` (single isomer, unassigned) [Cpd 22, 6-{7-[(1S,2S,3R,5R)-2-fluoro-8-azabicyclo[3.2.1]octan-3-yl]-7H-pyrrolo[2,3-c]pyridazin-3-yl}-2-methyl-1,3-benzothiazol-5-ol or 6-{7-[(1R,2R,3S,5S)-2-fluoro-8-azabicyclo[3.2.1]octan-3-yl]-7H-pyrrolo[2,3-c]pyridazin-3-yl}-2-methyl-1,3-benzothiazol-5-ol], the IC50 was under 0.1 µM.

Take `Cc1nc2cc(-c3cc4ccn([C@@H]5CCNC6(CCC6)[C@@H]5F)c4nn3)c(O)cc2s1` (single isomer, unassigned) [Cpd 34, 5-{7-[(8R,9R)-9-fluoro-5-azaspiro[3.5]nonan-8-yl]-7H-pyrrolo[2,3-c]pyridazin-3-yl}-2-methyl-1,3-benzothiazol-6-ol or 5-{7-[(8S,9S)-9-fluoro-5-azaspiro[3.5]nonan-8-yl]-7H-pyrrolo[2,3-c]pyridazin-3-yl}-2-methyl-1,3-benzothiazol-6-ol]: the IC50 was in the range of 0.1 to 0.5 µM.

With `Cc1nc2cc(O)c(-c3cc4c(nn3)N([C@H]3C[C@@H]5CC[C@@H](N5)[C@H]3F)CC4)cc2s1` (single isomer, unassigned) [Cpd 58, 6-{7-[(1R,2R,3S,5S)-2-fluoro-8-azabicyclo[3.2.1]octan-3-yl]-6,7-dihydro-5H-pyrrolo[2,3-c]pyridazin-3-yl}-2-methyl-1,3-benzothiazol-5-ol or 6-{7-[(1S,2S,3R,5R)-2-fluoro-8-azabicyclo[3.2.1]octan-3-yl]-6,7-dihydro-5H-pyrrolo[2,3-c]pyridazin-3-yl}-2-methyl-1,3-benzothiazol-5-ol], the IC50 was under 0.1 µM.

In the case of `Cc1nc2cc(O)c(-c3cc4c(nn3)N([C@@H]3CC5(CCC5)NC[C@@H]3F)CC4)cc2s1` (single isomer, unassigned) [Cpd 61, 6-{7-[(7S,8R)-7-fluoro-5-azaspiro[3.5]nonan-8-yl]-6,7-dihydro-5H-pyrrolo[2,3-c]pyridazin-3-yl}-2-methyl-1,3-benzothiazol-5-ol or 6-{7-[(7R,8S)-7-fluoro-5-azaspiro[3.5]nonan-8-yl]-6,7-dihydro-5H-pyrrolo[2,3-c]pyridazin-3-yl}-2-methyl-1,3-benzothiazol-5-ol], the IC50 was under 0.1 µM.

In the case of `Cc1nc2cc(O)c(-c3cc4c(nn3)N([C@@H]3CCNC(C)(C)[C@@H]3F)CC4)cc2s1` (single isomer, unassigned) [Cpd 63, 6-{7-[(3R,4R)-3-fluoro-2,2-dimethylpiperidin-4-yl]-6,7-dihydro-5H-pyrrolo[2,3-c]pyridazin-3-yl}-2-methyl-1,3-benzothiazol-5-ol or 6-{7-[(3S,4S)-3-fluoro-2,2-dimethylpiperidin-4-yl]-6,7-dihydro-5H-pyrrolo[2,3-c]pyridazin-3-yl}-2-methyl-1,3-benzothiazol-5-ol], the IC50 was under 0.1 µM.

With `Cc1nc2cc(O)c(-c3cc4c(nn3)N([C@@H]3CCNC(C)(C)[C@@H]3F)CC4)cc2o1` (single isomer, unassigned) [Cpd 64, 6-{7-[(3R,4R)-3-fluoro-2,2-dimethylpiperidin-4-yl]-6,7-dihydro-5H-pyrrolo[2,3-c]pyridazin-3-yl}-2-methyl-1,3-benzoxazol-5-ol or 6-{7-[(3S,4S)-3-fluoro-2,2-dimethylpiperidin-4-yl]-6,7-dihydro-5H-pyrrolo[2,3-c]pyridazin-3-yl}-2-methyl-1,3-benzoxazol-5-ol], the IC50 is under 0.1 µM.

For the compound `Cc1nc2cc(-c3cc4c(nn3)N(C3CCNC5(CCC5)[C@@H]3F)CC4)c(O)cc2s1` (single isomer, unassigned) [Cpd 74, 5-{7-[(8R,9R)-9-fluoro-5-azaspiro[3.5]nonan-8-yl]-6,7-dihydro-5H-pyrrolo[2,3-c]pyridazin-3-yl}-2-methyl-1,3-benzothiazol-6-ol or 5-{7-[(8S,9S)-9-fluoro-5-azaspiro[3.5]nonan-8-yl]-6,7-dihydro-5H-pyrrolo[2,3-c]pyridazin-3-yl}-2-methyl-1,3-benzothiazol-6-ol], the IC50 is under 0.1 µM.

`Cc1cc(=O)oc2cc(O)c(-c3cc4c(nn3)N([C@@H]3C[C@H]5CC[C@H](N5)[C@@H]3F)CC4)cc12` (single isomer, unassigned) [Cpd 79, 6-{7-[(1S,2S,3R,5R)-2-fluoro-8-azabicyclo[3.2.1]octan-3-yl]-6,7-dihydro-5H-pyrrolo[2,3-c]pyridazin-3-yl}-7-hydroxy-4-methyl-2H-1-benzopyran-2-one or 6-{7-[(1R,2R,3S,5S)-2-fluoro-8-azabicyclo[3.2.1]octan-3-yl]-6,7-dihydro-5H-pyrrolo[2,3-c]pyridazin-3-yl}-7-hydroxy-4-methyl-2H-1-benzopyran-2-one]: the IC50 was under 0.1 µM.

Consider `Cc1cnc2cc(-c3cc4c(nn3)N([C@@H]3C[C@H]5CC[C@H](N5)[C@@H]3F)CC4)c(O)cc2n1` (single isomer, unassigned) [Cpd 91, 7-{7-[(1S,2S,3R,5R)-2-fluoro-8-azabicyclo[3.2.1]octan-3-yl]-6,7-dihydro-5H-pyrrolo[2,3-c]pyridazin-3-yl}-3-methylquinoxalin-6-ol or 7-{7-[(1R,2R,3S,5S)-2-fluoro-8-azabicyclo[3.2.1]octan-3-yl]-6,7-dihydro-5H-pyrrolo[2,3-c]pyridazin-3-yl}-3-methylquinoxalin-6-ol], for which the IC50 was under 0.1 µM.

Take `CC1(C)CC(n2nnc3cc(-c4cc5c(cc4O)C(=O)CC5)nnc32)CC(C)(C)N1` [Cpd 1, 6-hydroxy-5-[3-(2,2,6,6-tetramethylpiperidin-4-yl)-3H-[1,2,3]triazolo[4,5-c]pyridazin-6-yl]-2,3-dihydro-1H-inden-1-one]: the IC50 lay within 1 to 3 µM.

With `CC1(C)CC(n2nnc3cc(-c4cc5cccnc5cc4O)nnc32)CC(C)(C)N1` [Cpd 2, 6-[3-(2,2,6,6-tetramethylpiperidin-4-yl)-3H-[1,2,3]triazolo[4,5-c]pyridazin-6-yl]quinolin-7-ol], the IC50 was 1 to 3 µM.

As to `Cc1nc2cc(O)c(-c3cc4ccn([C@H]5CC(C)(C)NC(C)(C)[C@H]5F)c4nn3)cc2o1` [Cpd 3, 6-{7-[(3S,4S)-3-fluoro-2,2,6,6-tetramethylpiperidin-4-yl]-7H-pyrrolo[2,3-c]pyridazin-3-yl}-2-methyl-1,3-benzoxazol-5-ol], the IC50 is under 0.1 µM.

As to `Cc1nc2cc(O)c(-c3cc4ccn([C@H]5CC(C)(C)NC(C)(C)[C@H]5F)c4nn3)cc2s1` [Cpd 4, 6-{7-[(3S,4S)-3-fluoro-2,2,6,6-tetramethylpiperidin-4-yl]-7H-pyrrolo[2,3-c]pyridazin-3-yl}-2-methyl-1,3-benzothiazol-5-ol], the IC50 is under 0.1 µM.

For the compound `Cc1cnc2cc(-c3cc4ccn([C@H]5CC(C)(C)NC(C)(C)[C@H]5F)c4nn3)c(O)cc2n1` [Cpd 5, 7-{7-[(3S,4S)-3-fluoro-2,2,6,6-tetramethylpiperidin-4-yl]-7H-pyrrolo[2,3-c]pyridazin-3-yl}-3-methylquinoxalin-6-ol], the IC50 was under 0.1 µM.

`Cc1nc2cc(-c3cc4ccn([C@H]5CC(C)(C)NC(C)(C)[C@H]5F)c4nn3)c(O)cc2o1` [Cpd 6, 5-{7-[(3S,4S)-3-fluoro-2,2,6,6-tetramethylpiperidin-4-yl]-7H-pyrrolo[2,3-c]pyridazin-3-yl}-2-methyl-1,3-benzoxazol-6-ol]: the IC50 was under 0.1 µM.

`Cc1nc2cc(-c3cc4ccn([C@H]5CC(C)(C)NC(C)(C)[C@H]5F)c4nn3)c(O)cc2s1` [Cpd 8, 5-{7-[(3S,4S)-3-fluoro-2,2,6,6-tetramethylpiperidin-4-yl]-7H-pyrrolo[2,3-c]pyridazin-3-yl}-2-methyl-1,3-benzothiazol-6-ol]: the IC50 is under 0.1 µM.
